Laboratory results as given in patent US8952192B2, “Phosphorylated and branched dihydroxy-pentane-dione (DPD) analogs as quorum sensing inhibitors in bacteria” (University of Maryland, College Park, priority 2011, dated 2015).
Entries after “also recorded” stand apart in the source; their conditions may differ.

How the values were obtained:
V. harveyi = experiment: DPD analogs and representative bacterial species affected (Table 1); format: cell-based; set-up: key: x: DPD Analogs and representative bacterial species affected
E. coli = experiment: as above; format: cell-based; set-up: key: x: DPD Analogs and representative bacterial species affected
[1] = test system: lsr expression in E. coli (lsr-lacZ reporter strains); experiment: QS response (lsr expression): AI-2 dependent β-galactosidase production, Miller assay; format: cell-based, Escherichia coli; conditions: for inhibition of AI-2-mediated lsr expression (β-galactosidase), in words: 20 μM AI-2 (DPD) + 20 μM analog; for IC50: concentration reducing lsr expression (β-galactosidase production) to 50% in the presence of 20 μM exogenously added synthetic DPD, read-out: IC50 of analog (nM) to inhibit QS in E. coli
Procedure: (§1) The panel of C1-alkyl analogs was screened to identify QS modulators in the enteric bacteria E. coli and S. typhimurium. Transcription of the QS associated lsr operon, by using lsr-lacZ reporter strains (Table 2) which produce β-galactosidase in response to added AI-2 was monitored. In order to first establish if the analogs were agonists or antagonists in the QS circuit, the analogs were incubated with E. coli LW7 pLW11 and S. typhimurium MET715 (FIG. 19a-b) both of which are luxS^−. None of the analogs, except ethyl-DPD behaved as agonists for lsr expression. Previous studies investigating AI-2 antagonism in P. aeruginosa or in S. typhimurium were carried out using chemically synthesized AI-2 added to luxS^− cells. […] The same trends were obtained by adding a 1:1 ratio of enzymatically synthesized AI-2 and DPD analogs to the luxS^− strains E. coli LW7 pLW11 and S. typhimurium MET715 (FIG. 11a-b). None of the tested DPD analogs were bacteriocidal or bacteriostatic as the OD600 values of E. coli ZK126 pLW11 and S. typhimurium MET708 in the presence and absence of the analogs were similar (FIG. 10). Though the QS circuitry of the enteric organisms, E. coli and S. typhimurium are homologous they respond differently to the DPD analogs. The E. coli QS circuitry is susceptible to being silenced by a variety of DPD analogs of different shapes and sizes whereas in S. typhimurium, only a handful of DPD analogs could antagonize the action of AI-2. […] Isobutyl-DPD emerged as an effective and non-species-specific quencher; causing significant lsr expression knockdowns in both E. coli and S. typhimurium.
(§2) The QS response indicated by lsr gene expression was analyzed in pure culture studies by culturing E. coli LW7 pLW11, E. coli ZK126 pLW11 and S. typhimurium MET708, S. typhimurium MET715 overnight in LB medium supplemented with appropriate antibiotics as stated previously. These cells were then diluted into fresh LB medium (with antibiotics) and grown to an OD600 of 0.8-1.0 at 30° C., 250 rpm. Cells were then collected by centrifugation at 10,000×g for 10 minutes, and resuspended in 10 mM phosphate buffer. AI-2 (20 μM) and the respective analog (20 μM) were added to the E. coli or S. typhimurium suspension for 2 hours at 37° C. AI-2 dependent β-galactosidase production was quantified by the Miller assay.
(§3) The QS response indicated by lsr gene expression was analyzed in pure culture studies by culturing E. coli LW7 pLW11 and S. typhimurium MET715 overnight at 30° C. in LB medium supplemented with appropriate antibiotics as stated previously. These cells were then diluted into fresh LB medium (with antibiotics) and grown to an OD600 of 0.4-0.8 at 37° C., 250 rpm. Cells were then collected by centrifugation at 10,000×g for 10 min and resuspended in 10 mM phosphate buffer. AI-2 (20 μM) and the respective analog (20 μM) were added to the E. coli or S. typhimurium suspension for 2 h at 37° C. AI-2 dependent β-galactosidase production was quantified by the Miller assay.
(§4) The QS response indicated by lsr gene expression was analyzed in pure culture studies by culturing E. coli LW7 pLW11, E. coli ZK126 pLW11 and S. typhimurium MET708, S. typhimurium MET715 overnight in LB medium individually supplemented with appropriate antibiotics, as specified above. These cells were diluted into fresh LB medium (with antibiotics) and grown to an OD600 of 0.8-1.0 at 30° C., 250 rpm. Cells were collected by centrifugation at 10,000×g for 10 minutes, and resuspended in 10 mM phosphate buffer. AI-2 (20 μM) and the respective analog (20 μM) were added to the E. coli or S. typhimurium suspension for 2 hours at 37° C. AI-2 dependent β-galactosidase production was quantified by the Miller assay.

LsrK = target: T1, LsrK (Escherichia coli, UniProt P77432); experiment: In vitro phosphorylation of analogs by LsrK (TLC, autoradiography); format: biochemical, E. coli; conditions: for phosphorylation by E. coli LsrK: incubation with LsrK in vitro for one hour (Example 6)
T1 construct: made in house; host or cells: E. coli BL21
Procedure: LsrK was purified and from E. coli BL21 pET200-LsrK as described before. Phosphorylated analogs were synthesized by incubating 1 μM) LsrK with 40 μM ATP (Roche), […] of [γ-^32P] […] A 5 μL aliquot was then spotted onto a cellulose TLC plate (Selecto Scientific). The plate was developed using 0.8 M LiCl as the solvent, air dried and developed via autoradiography.
LsrK was purified from E. coli BL21 pET200-LsrK as described before. Phosphorylated analogs were synthesized by incubating (1 μM) LsrK with (40 μM) ATP (Roche), ([…]) of [P^32] […] An aliquot (2.5 μL) was then spotted onto a cellulose TLC plate (Selecto Scientific). The plate was developed using 0.8 M LiCl as the solvent, air dried and developed via autoradiography.

[2] = test system: lsr expression in S. typhimurium (lsr-lacZ reporter strains); experiment: QS response (lsr expression): AI-2 dependent β-galactosidase production, Miller assay; format: cell-based, Salmonella typhimurium; conditions: for IC50: concentration reducing lsr expression (β-galactosidase production) to 50% in the presence of 20 μM exogenously added synthetic DPD, read-out: IC50 of analog (nM) to inhibit QS in S. typhimurium
Procedure: as §1, §2, §3, §4

V. harveyi BB170 = experiment: QS response (bioluminescence), trispecies synthetic ecosystem; format: cell-based; conditions: LM media
Procedure: The effect of isobutyl-DPD or isopropyl-DPD on QS associated bioluminescence production by V. harveyi was recorded by measuring the light production from reporter strain, V. harveyi BB170. The analogs were added at concentrations of (20 μM or 40 μM) to V. harveyi BB170 which was assayed as previously described.
(§5) The S. typhimurium MET708, V. harveyi BB170 and E. coli W3110 pCT6 were each cultured separately overnight in LM medium supplemented with the appropriate antibiotic. V. harveyi BB170, S. typhimurium MET708 and E. coli MDAI-2 were diluted (1:4:8), respectively, into a single 1 ml volume of fresh LM medium without antibiotics. The co-culture was supplemented with either 20 μM or 40 μM analog initially and again after 3 and 5 hours of growth. The V. harveyi luminescence response was measured after 2.5 hours. The S. typhimurium lacZ (β-galactosidase) activity was measured after 4 hours. The E. coli response was determined after 8 hours, by fixing the cells with 1:1 cold 4% paraformaldehyde and using flow cytometric analysis. Samples were analyzed by flow cytometery (FACS Canto II, BD 394 Biosciences), with 20,000 gated events analyzed per sample.

E. coli W3110 pCT6 = experiment: Trispecies synthetic ecosystem: AI-2 stimulated GFP expression, flow cytometry; format: cell-based; conditions: trispecies co-culture, flow cytometry after 8 hours; 60.7% without analog
Description: (§6) To investigate the effect of the DPD analogs in a mixed bacterial environment, a synthetic ecosystem composed of three different bacterial populations was assembled. Specifically, S. typhimurium MET708, V. harveyi BB170 and E. coli W3110 (pCT6), each luxS^+ (Table 2), and each producing their native AI-2 were co-cultured in the same tubes. By design, each species was selected so that a different reporter probe would indicate the specific bacterium's QS response: S. typhimurium (MET708) expresses β-galactosidase; V. harveyi (BB170) elicits bioluminescience; and E. coli (W331) are engineered to synthesize GFP. In this way, their responses can be differentiated and quantified in response to AI-2.
as §5, with “V. harveyi BB170, S. typhimurium MET708 and E. coli MDAI-2 were diluted (1:4:8), respectively, into a single 1 ml volume of fresh LM medium without antibiotics. The co-culture was supplemented with either 20 μM or 40 μM analog initially and again after 3 and 5 hours of growth.” left out

S. typhimurium MET708 = experiment: Trispecies synthetic ecosystem (S. typhimurium, V. harveyi, E. coli): β-galactosidase activity; format: cell-based; conditions: trispecies co-culture, lacZ activity after 4 hours
Description: as §6
as §5, with “V. harveyi BB170, S. typhimurium MET708 and E. coli MDAI-2 were diluted (1:4:8), respectively, into a single 1 ml volume of fresh LM medium without antibiotics. The co-culture was supplemented with either 20 μM or 40 μM analog initially and again after 3 and 5 hours of growth.” left out

[3] = test system: lsr expression in E. coli (lsr-lacZ reporter strains); experiment: QS response (lsr expression): AI-2 dependent β-galactosidase production, Miller assay; format: cell-based, Escherichia coli; conditions: E. coli SH3 (lsrK−, luxS−), 20 μM ethyl-DPD
S. mutans = experiment: DPD analogs and representative bacterial species affected (Table 1); format: cell-based; set-up: key: x: DPD Analogs and representative bacterial species affected
[4] = test system: pyocyanin production in P. aeruginosa PAO1; experiment: QS response (pyocyanin production); format: cell-based; conditions: pure culture P. aeruginosa PAO1, DPD analogs (100 μM)
Procedure: Identifying Modulators of P. aeruginosa QS. DPD analogs (100 μM) were screened for activity in P. aeruginosa PAO1 by monitoring pyocyanin production (FIG. 34b and FIG. 38).
The cells were grown with the analog at 3 mL total volume in 50 mL flasks in LB medium, with continuous shaking. Between 22-24 h, when the cells turned green after pyocyanin secretion, the pigment was extracted. The pyocyanin quantification assay was conducted as described. 2 mL chloroform was added to the 3 mL culture and pipetted up and down. 1 mL of the chloroform was transferred to a separate tube and the pyocyanin was re-extracted into 200 μL of 0.2 M HCl. The absorbance of the solution was measured at OD 520 nm. To calculate the concentration of pyocyanin extracted as μg/mL, the OD at 520 nm was multiplied by 17.07.

T1 sequence (P77432 whole entry): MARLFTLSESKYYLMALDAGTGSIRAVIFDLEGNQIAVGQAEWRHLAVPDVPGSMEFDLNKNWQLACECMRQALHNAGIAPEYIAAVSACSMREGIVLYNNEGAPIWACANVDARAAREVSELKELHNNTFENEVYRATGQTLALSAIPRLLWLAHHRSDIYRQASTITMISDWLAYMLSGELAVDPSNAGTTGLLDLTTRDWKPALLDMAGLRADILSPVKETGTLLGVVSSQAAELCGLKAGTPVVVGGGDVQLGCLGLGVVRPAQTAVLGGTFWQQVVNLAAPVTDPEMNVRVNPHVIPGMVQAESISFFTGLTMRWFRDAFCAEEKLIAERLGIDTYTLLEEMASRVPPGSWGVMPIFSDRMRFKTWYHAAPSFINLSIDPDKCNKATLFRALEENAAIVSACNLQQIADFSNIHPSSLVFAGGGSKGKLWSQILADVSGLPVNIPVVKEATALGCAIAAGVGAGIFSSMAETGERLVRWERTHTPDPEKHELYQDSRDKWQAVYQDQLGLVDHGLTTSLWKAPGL

## O=C(C(=O)C1CCCCC1)C(O)CO (centres unmarked) [Cyclohexyl-DPD, cyclohexyl-DPD]
V. harveyi
  bacterial species affected: V. harveyi: x
E. coli
  bacterial species affected: E. coli: x
[1]; E. coli LW7 pLW11 (luxS−)
  inhibition of AI-2-mediated lsr expression (β-galactosidase), in words: attenuated lsr expression in E. coli to a lesser extent
LsrK
  phosphorylation by E. coli LsrK: weakly phosphorylated
LsrK; listed as cyclohexyl
  phosphorylation by E. coli LsrK: not phosphorylated
[2]; S. typhimurium MET715 (luxS−), 20 μM AI-2 (DPD) + 20 μM analog
  effect on AI-2-mediated lsr expression (β-galactosidase), in words: increased expression

## CC(C)C(=O)C(=O)C(O)CO (centres unmarked) [isopropyl-DPD]
V. harveyi BB170; 20 μM
  decrease of bioluminescence in V. harveyi: 50%
V. harveyi BB170; 40 μM
  decrease of bioluminescence in V. harveyi: 50%
E. coli
  bacterial species affected: E. coli: x
E. coli W3110 pCT6
  QS positive (green, GFP) cells of the E. coli population after analog addition: 21.4%
[1]; E. coli ZK126 pLW11 (luxS+), cells produce their own AI-2
  effect on native lsr expression (QS response): substantial reduction; also recorded: partial antagonist
LsrK; incubation with LsrK and excess ATP for 2 hours (Example 1)
  phosphorylation by LsrK: phosphorylated
S. typhimurium MET708
  reduction of the S. typhimurium response, in words: unable to cause any reduction

## CCC(=O)C(=O)[C@@H](O)CO [ethyl-DPD]
V. harveyi
  bacterial species affected: V. harveyi: x
[3]
  lsr transcription in LsrK knockout strain: did not initiate lsr transcription
E. coli
  bacterial species affected: E. coli: x
[1]; E. coli LW7 pLW11 (luxS−), analog only, no AI-2 added
  agonist activity for lsr expression: agonist
[2]; S. typhimurium MET715 (luxS−), analog only, no AI-2 added
  agonist activity for lsr expression: agonist

## O=C(C(=O)C(O)CO)c1ccco1 (centres unmarked) [furanosyl-DPD, Furanyl DPD]
[1]; E. coli LW7 pLW11 (luxS−)
  inhibition of AI-2-mediated lsr expression (β-galactosidase), in words: minimal
S. mutans
  bacterial species affected: S. mutans: x

## CCCCCCCC(=O)C(=O)[C@@H](O)CO [Heptyl-DPD, heptyl-DPD]
[4]
  inhibition of pyocyanin production: some inhibition
E. coli
  bacterial species affected: E. coli: x
[1]
  IC50: 15900 nM
[2]
  IC50: > 40000 nM

## O=C(C(=O)C1CCC1)C(O)CO (centres unmarked) [Cyclobutyl-DPD, Cyclobutyl DPD]
[1]; E. coli LW7 pLW11 (luxS−)
  inhibition of AI-2-mediated lsr expression (β-galactosidase), in words: inhibit lsr expression
LsrK
  phosphorylation by E. coli LsrK: significantly phosphorylated
S. mutans
  bacterial species affected: S. mutans: x

## CCCCC(=O)C(=O)[C@@H](O)CO [Butyl-DPD, butyl-DPD]
V. harveyi
  bacterial species affected: V. harveyi: x
E. coli
  bacterial species affected: E. coli: x
[1]
  IC50: 2970 nM
[2]; S. typhimurium MET708 (luxS+), cells produce their own AI-2
  effect on native lsr expression (QS response): considerable QS response reduction; also recorded: significantly inhibited signaling
[2]
  IC50: > 40000 nM
